The record followed here is ChEMBL document CHEMBL5338717, “Discovery of novel PDE4 inhibitors targeting the M-pocket from natural mangostanin with improved safety for the treatment of Inflammatory Bowel Diseases” (Eur J Med Chem, 2022).

Each structure is given as a SMILES string. The source made the active and inactive calls. No cut-off for these calls is given here.

A short description of data set [1]: Selectivity index, ratio of IC50 for inhibition of recombinant PDE1C (147 to 531 residues) (unknown origin) expressed in Escherichia coli BL21 to IC50 for inhibition of recombinant PDE4D2 (86 to 413 residues) (unknown origin) expressed in Escherichia coli BL21.
Data set [2] can be described thus: Selectivity index, ratio of IC50 for inhibition of PDE7A1 (130 to 482 residues) (unknown origin) expressed in Escherichia coli BL21 to IC50 for inhibition of recombinant PDE4D2 (86 to 413 residues) (unknown origin) expressed in Escherichia coli BL21.
In data set [3] the target is High affinity cGMP-specific 3',5'-cyclic phosphodiesterase 9A (Homo sapiens, UniProt O76083). Nature of the data set: Inhibition of recombinant PDE9A2 (181 to 506 residues) (unknown origin) expressed in Escherichia coli BL21 using [3H]cGMP as substrate incubated for 15 mins by liquid scintillation method.
Data set [4] relates to Mus musculus. As to the kind of experiment: Anti-inflammatory bowel disease activity in DSS-induced inflammatory bowel disease C57BL/6 mouse model assessed as decrease in rectal bleeding by measuring disease activity index score at 5 mg/kg, iv BID and measured upto 8 days by Haem-occult test. The class given is functional, organism-based. The following applies: time <= 8.0 day.

In data set [5] the test system is Mus musculus. As to the kind of experiment: Anti-inflammatory bowel disease activity in DSS-induced inflammatory bowel disease C57BL/6 mouse model assessed as decrease in loss of crypt architecture in colon at 5 mg/kg, iv BID and measured after 8 days by Haematoxylin and eosin staining based microscopy. The following applies: time 8.0 day. The class given is functional, organism-based.

Data set [6] has as its target cGMP-specific 3',5'-cyclic phosphodiesterase (Homo sapiens, UniProt O76074). As to the kind of experiment: Inhibition of recombinant PDE5A1 (535 to 860 residues) (unknown origin) expressed in Escherichia coli BL21 using [3H]cGMP as substrate incubated for 15 mins by liquid scintillation method.
The nature of data set [7]: Selectivity index, ratio of IC50 for inhibition of PDE5A1 (535 to 860 residues) (unknown origin) expressed in Escherichia coli BL21 to IC50 for inhibition of recombinant PDE4D2 (86 to 413 residues) (unknown origin) expressed in Escherichia coli BL21.
The nature of data set [8]: Selectivity index, ratio of IC50 for inhibition of recombinant PDE2A (580 to 919 residues) (unknown origin) expressed in Escherichia coli BL21 to IC50 for inhibition of recombinant PDE4D2 (86 to 413 residues) (unknown origin) expressed in Escherichia coli BL21.
The target of data set [9] is Voltage-gated inwardly rectifying potassium channel KCNH2 (Homo sapiens, UniProt Q12809). As to the kind of experiment: Inhibition of human ERG. The class given is toxicity.
In data set [10] the test system is Mus musculus. As to the kind of experiment: Anti-inflammatory bowel disease activity in DSS-induced inflammatory bowel disease C57BL/6 mouse model assessed as decrease in TNF-alpha mRNA expression level in colon at 5 mg/kg, iv BID and measured after 8 days by real-time PCR analysis. The class given is functional, organism-based. The following applies: time 8.0 day.

Data set [11] is described as follows: Selectivity index, ratio of IC50 for inhibition of recombinant PDE9A2 (181 to 506 residues) (unknown origin) expressed in Escherichia coli BL21 to IC50 for inhibition of recombinant PDE4D2 (86 to 413 residues) (unknown origin) expressed in Escherichia coli BL21.
For data set [12], the target named is 3',5'-cyclic-AMP phosphodiesterase 4B (Homo sapiens, UniProt Q07343). As to the kind of experiment: Inhibition of recombinant PDE4B2 (152 to 487 residues) (unknown origin) expressed in Escherichia coli BL21 using [3H]cAMP as substrate incubated for 15 mins by liquid scintillation method.
Data set [13] is described as follows: Elimination half life in Sprague-Dawley rat at 2.5 mg/kg, iv. To be noted: in vivo, read-out: beta t1/2 (converted). The class given is ADME, organism-based.
Data set [14] concerns Mus musculus. As to the kind of experiment: Anti-inflammatory bowel disease activity in DSS-induced inflammatory bowel disease C57BL/6 mouse model assessed as decrease in IL-6 mRNA expression level in colon at 5 mg/kg, iv BID and measured after 8 days by real-time PCR analysis. The class given is functional, organism-based. To be noted: time 8.0 day.
Data set [15] concerns Mus musculus. As to the kind of experiment: Anti-inflammatory bowel disease activity in DSS-induced inflammatory bowel disease C57BL/6 mouse model assessed as decrease in IFN-gamma mRNA expression level in colon at 5 mg/kg, iv BID and measured after 8 days by real-time PCR analysis. The class given is functional, organism-based. The following applies: time 8.0 day.
Data set [16] concerns Mus musculus. Nature of the data set: Anti-inflammatory bowel disease activity in DSS-induced inflammatory bowel disease C57BL/6 mouse model assessed as decrease in epithelial damage in colon at 5 mg/kg, iv BID and measured after 8 days by Haematoxylin and eosin staining based microscopy. The class given is functional, organism-based. The following applies: time 8.0 day.
Data set [17] concerns the target High affinity 3',5'-cyclic-AMP phosphodiesterase 7A (Homo sapiens, UniProt Q13946). As to the kind of experiment: Inhibition of recombinant PDE7A1 (130 to 482 residues) (unknown origin) expressed in Escherichia coli BL21 using [3H]cAMP as substrate incubated for 15 mins by liquid scintillation method.
Data set [18] has as its system Mus musculus. Nature of the data set: Anti-inflammatory bowel disease activity in DSS-induced inflammatory bowel disease C57BL/6 mouse model assessed as increase in body weight at 5 mg/kg, iv BID and measured after 8 days […]. The class given is functional, organism-based. To be noted: time 8.0 day.
In data set [19] the test system is Mus musculus. Nature of the data set: Anti-inflammatory bowel disease activity in DSS-induced inflammatory bowel disease C57BL/6 mouse model assessed as increase in colon length at 5 mg/kg, iv BID and measured upto 8 days. The class given is functional, organism-based. To be noted: time <= 8.0 day.
The target in the next data set is T1, Cytochrome P450 1A2 (Homo sapiens, UniProt P05177).
T1 sequence (P05177 whole entry): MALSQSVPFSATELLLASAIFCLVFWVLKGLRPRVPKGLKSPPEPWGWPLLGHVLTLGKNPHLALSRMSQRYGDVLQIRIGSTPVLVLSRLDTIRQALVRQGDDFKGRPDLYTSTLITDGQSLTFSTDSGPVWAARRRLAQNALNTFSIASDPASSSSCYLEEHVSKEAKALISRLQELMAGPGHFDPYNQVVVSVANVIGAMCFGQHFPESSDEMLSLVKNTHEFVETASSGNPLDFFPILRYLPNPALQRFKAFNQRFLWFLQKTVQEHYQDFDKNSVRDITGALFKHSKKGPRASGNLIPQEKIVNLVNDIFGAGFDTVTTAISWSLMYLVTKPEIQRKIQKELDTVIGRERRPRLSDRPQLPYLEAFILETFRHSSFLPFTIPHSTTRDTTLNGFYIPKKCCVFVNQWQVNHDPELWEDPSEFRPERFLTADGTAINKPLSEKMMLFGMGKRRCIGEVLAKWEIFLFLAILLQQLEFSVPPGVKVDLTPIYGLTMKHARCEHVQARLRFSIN
As to the kind of experiment: Inhibition of human CYP1A2 in human hepatocytes. The class given is ADME, cell-based, Hepatocyte.

Chain of 3',5'-cyclic-AMP phosphodiesterase 4B (Q07343 whole entry, the tested form may be a part): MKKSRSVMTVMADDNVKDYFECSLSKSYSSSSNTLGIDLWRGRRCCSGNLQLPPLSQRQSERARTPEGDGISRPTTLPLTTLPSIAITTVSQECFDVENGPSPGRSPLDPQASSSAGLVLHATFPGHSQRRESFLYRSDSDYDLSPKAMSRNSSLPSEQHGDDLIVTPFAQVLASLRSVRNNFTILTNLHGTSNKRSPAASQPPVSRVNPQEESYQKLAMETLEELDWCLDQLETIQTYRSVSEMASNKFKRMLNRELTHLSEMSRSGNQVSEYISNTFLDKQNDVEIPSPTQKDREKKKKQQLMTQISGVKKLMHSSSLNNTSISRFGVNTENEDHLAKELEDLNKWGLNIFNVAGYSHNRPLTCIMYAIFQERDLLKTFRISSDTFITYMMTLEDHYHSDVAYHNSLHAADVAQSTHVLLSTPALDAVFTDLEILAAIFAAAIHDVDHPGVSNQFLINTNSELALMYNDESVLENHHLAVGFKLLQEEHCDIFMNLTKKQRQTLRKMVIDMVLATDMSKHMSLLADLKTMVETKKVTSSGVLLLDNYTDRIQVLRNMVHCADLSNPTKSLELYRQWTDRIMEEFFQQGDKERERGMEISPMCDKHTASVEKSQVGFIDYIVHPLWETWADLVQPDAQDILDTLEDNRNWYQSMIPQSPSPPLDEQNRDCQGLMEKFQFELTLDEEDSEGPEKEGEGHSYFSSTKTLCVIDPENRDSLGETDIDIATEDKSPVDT
Chain of High affinity cGMP-specific 3',5'-cyclic phosphodiesterase 9A (O76083 whole entry, the tested form may be a part): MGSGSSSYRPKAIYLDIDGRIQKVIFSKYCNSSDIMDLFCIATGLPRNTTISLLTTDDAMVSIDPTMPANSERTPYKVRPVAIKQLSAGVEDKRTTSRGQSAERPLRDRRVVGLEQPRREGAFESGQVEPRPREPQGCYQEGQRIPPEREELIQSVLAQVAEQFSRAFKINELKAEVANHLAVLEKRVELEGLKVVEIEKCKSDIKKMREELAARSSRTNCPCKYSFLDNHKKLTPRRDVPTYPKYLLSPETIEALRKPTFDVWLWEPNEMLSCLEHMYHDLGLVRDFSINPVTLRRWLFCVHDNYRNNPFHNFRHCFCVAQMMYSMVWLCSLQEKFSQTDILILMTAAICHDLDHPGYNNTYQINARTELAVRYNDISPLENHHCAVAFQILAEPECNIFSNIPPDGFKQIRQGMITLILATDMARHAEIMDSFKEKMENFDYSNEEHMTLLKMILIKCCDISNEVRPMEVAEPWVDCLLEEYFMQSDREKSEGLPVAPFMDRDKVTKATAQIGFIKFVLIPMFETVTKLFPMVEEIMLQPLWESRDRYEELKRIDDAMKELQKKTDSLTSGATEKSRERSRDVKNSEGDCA
Chain of High affinity 3',5'-cyclic-AMP phosphodiesterase 7A (Q13946 whole entry, the tested form may be a part): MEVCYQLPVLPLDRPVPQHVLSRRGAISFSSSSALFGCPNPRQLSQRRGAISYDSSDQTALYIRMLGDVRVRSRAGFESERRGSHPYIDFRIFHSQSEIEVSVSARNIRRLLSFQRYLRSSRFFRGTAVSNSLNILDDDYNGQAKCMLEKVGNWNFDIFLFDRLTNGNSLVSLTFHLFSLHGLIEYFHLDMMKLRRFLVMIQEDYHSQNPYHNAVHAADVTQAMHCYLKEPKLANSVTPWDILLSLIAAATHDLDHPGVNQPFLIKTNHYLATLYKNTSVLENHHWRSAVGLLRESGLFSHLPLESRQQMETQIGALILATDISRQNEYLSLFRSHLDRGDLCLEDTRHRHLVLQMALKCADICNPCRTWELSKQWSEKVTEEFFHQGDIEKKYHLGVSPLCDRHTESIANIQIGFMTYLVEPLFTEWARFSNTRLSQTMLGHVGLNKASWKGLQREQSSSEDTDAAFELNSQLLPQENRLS
Chain of Voltage-gated inwardly rectifying potassium channel KCNH2 (Q12809 whole entry): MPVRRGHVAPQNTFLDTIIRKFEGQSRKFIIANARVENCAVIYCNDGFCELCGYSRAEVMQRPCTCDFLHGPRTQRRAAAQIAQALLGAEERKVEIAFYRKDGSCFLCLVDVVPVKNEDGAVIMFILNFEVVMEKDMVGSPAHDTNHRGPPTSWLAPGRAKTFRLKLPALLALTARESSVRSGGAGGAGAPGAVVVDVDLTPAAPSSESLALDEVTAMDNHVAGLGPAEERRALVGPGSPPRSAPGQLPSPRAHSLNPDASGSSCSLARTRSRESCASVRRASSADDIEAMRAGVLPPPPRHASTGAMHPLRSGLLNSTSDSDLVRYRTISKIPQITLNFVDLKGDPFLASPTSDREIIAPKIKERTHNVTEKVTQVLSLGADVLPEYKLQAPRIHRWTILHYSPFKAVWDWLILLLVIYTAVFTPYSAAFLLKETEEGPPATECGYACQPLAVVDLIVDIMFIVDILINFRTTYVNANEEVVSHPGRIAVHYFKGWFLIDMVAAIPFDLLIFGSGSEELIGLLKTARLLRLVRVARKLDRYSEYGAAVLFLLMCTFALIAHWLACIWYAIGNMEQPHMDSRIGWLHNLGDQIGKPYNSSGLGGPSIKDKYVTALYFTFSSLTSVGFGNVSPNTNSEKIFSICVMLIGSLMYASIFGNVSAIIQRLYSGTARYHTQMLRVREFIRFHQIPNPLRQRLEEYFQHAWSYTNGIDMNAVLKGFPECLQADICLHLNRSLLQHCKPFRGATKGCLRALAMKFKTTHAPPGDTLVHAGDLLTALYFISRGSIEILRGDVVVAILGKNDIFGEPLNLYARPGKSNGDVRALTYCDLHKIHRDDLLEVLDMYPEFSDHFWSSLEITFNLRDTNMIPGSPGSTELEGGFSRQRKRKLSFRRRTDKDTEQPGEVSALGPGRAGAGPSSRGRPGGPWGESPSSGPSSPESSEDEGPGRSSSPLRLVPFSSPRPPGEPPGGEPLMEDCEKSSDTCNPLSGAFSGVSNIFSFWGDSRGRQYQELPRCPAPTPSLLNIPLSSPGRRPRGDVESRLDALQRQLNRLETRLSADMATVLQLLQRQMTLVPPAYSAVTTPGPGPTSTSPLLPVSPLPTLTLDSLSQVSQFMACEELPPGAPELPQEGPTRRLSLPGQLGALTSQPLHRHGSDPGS

Regarding `COc1c(OCC2CC2)cc2oc3cc4c(c(OCc5ccncc5)c3c(=O)c2c1CC=C(C)C)C=CC(C)(C)O4`, the Ratio IC50 is above 2800 in data set [1]; 4.27 in data set [2]; 353 in data set [7]; above 2800 in data set [8]; above 2800 in [11]. For the same molecule, the 50% inhibitory concentration (IC50) in data set [3] is above 10000 nM; in data set [6] it was 1240 nM; in data set [9] it was above 40000 nM; in [12] it was 9.51 nM; in data set [17], 15 nM; against Cytochrome P450 1A2, above 25000 nM. Besides, the outcome in the data set with Mus musculus [4], with Mus musculus [5], with Mus musculus [10], with Mus musculus [14], in the data set on Mus musculus [15] and in the data set on Mus musculus [16] was Active. Further, the outcome in the data set on Mus musculus [18] and in the data set on Mus musculus [19] was Active. Further, in data set [13], the half-life was 4.18 h.
